From patent US20110165085A1, “TUMOR SELECTIVE FLUORESCENT STAINING AGENT” (THE UNIVERSITY OF TOKYO, priority 2006, published 2011)

Tests used:
[1] = tested on: RGK1 (transformed, cancer model) and RGM1 (normal gastric mucosal epithelium) cells; experiment: Flow cytometry screening: average fluorescence intensity ratio of RGK1 relative to RGM1; assay type: cell-based, rat
Method: Screening for candidate compounds was performed in a cultured cell system. As cultured cells, rat normal gastric mucosal epithelium derived cells, RGM1, and transformed cells thereof, RGK1, were used as model cells of normal cell and cancer cell, respectively. For the culture of RGM1 and RGK1, a DMEM/HAM F12 (1:1) medium (10% FBS, 0.1% penicillin streptomycin) was used. Each of the compounds shown below (concentration: 0-1 μM) was loaded on these cells for 10 minutes, then the medium was replaced with the medium not containing the compounds, and after a given time, average fluorescence intensity was determined by flow cytometry. Effectiveness of each compound was evaluated on the basis of average of fluorescence intensity ratio of RGK1 relative to RGM1.
Various ester derivatives converted from acetyl ester of FDA shown in Table I were compared by flow cytometry in the same manner as that used in Example 1.

[2] = tested on: intracellular esterase (RGK1 and RGM1 cell lysates); experiment: Hydrolytic enzyme activity for FDA in the two types of cell lysates; assay type: biochemical, rat
From the text: FDA is an esterase-sensitive fluorescent probe, and it enters into a cell by diffusion, then is hydrolyzed by an intracellular esterase to produce a fluorescent fluorescein, and gradually leaks out of the cell. Since the fluorescein is more hydrophilic compared with FDA, the leakage of the fluorescein out of the cell occurs much more slowly than the uptake of FDA into the cell. This process was compared for the normal cells and the cancer cells.

[3] = tested on: cancer cells and normal cells; experiment: Imaging of cancer and normal cells under a fluorescence microscope; assay type: cell-based, rat; conditions: fluorescence microscope IX71, excitation 470-490 nm, filter 500 nm
Method: Imaging was performed by using FDAcr under a fluorescence microscope.

esophagus cancer lesion = experiment: Fluorescence endoscopic imaging of NMBA rat esophagus cancer model; assay type: in vivo; conditions: endoscope (FIG. 4)
Method: By using FDAcr, imaging of an NMBA rat, an esophagus cancer model, was performed. A rat (10-week old, male) was subcutaneously injected with 1 mg of NMBA 5 times per week for the first to 5th weeks, and once per week for 6th to 15th weeks, and used for the experiment after 16th week. The rat was anesthetized by intraperitoneal administration of Nembutal (1 mL/kg body weight) and fixed on a rest in the dorsal position to maintain the airway. An endoscope was inserted into the esophagus for observation. […] In the same manner as Example 5, a fluorescent endoscopic image was obtained by using Cy-7, a cyanine near-infrared fluorescent dye.

colon cancer lesion = experiment: Fluorescence endoscopic imaging of colon cancer model rat; assay type: in vivo; conditions: enema 15 ml of 100 μM in PBS, 3 minutes, fiberscope (FIG. 5)
Method: By using FEAcr, imaging of a colon cancer model rat was performed. A colon cancer model rat was anesthetized with ether, and inside the colon was washed with 0.6% aqueous acetic acid. The inside of the colon was washed two to three times with PBS maintained at 37° C., and then an enema with 15 ml of 100 μM FDAcr (PBS solution) was performed from the anus and the anus was clogged to stand for 3 minutes. After 3 minutes, the inside of the colon was washed two to three times with PBS maintained at 37° C. A fiberscope (BF-3C40) was inserted in the colon to observe pathological legions.

CC(=O)Oc1ccc2c(c1)Oc1cc(OC(C)=O)ccc1C21OC(=O)c2ccccc21 [FDA, fluorescein diacetate]
average of fluorescence intensity ratio of RGK1 relative to RGM1 ([1]; compound 0-1 μM loaded 10 minutes, medium replaced, flow cytometry after a given time, among candidate compounds (FIG. 1)): highest fluorescence intensity ratio | hydrolytic activity for FDA, RGK1 versus RGM1 [2]: about twice higher hydrolytic activity

C=CC(=O)Oc1ccc2c(c1)Oc1cc(OC(=O)C=C)ccc1C21OC(=O)c2ccccc21 [FDAcr, fluorescein diacrylate]
fluorescence in cancer cells versus normal cells [3]: Strong fluorescence was observed in the cancer cells | performance for distinguishing cancer cells from normal cells (fluorescence intensity ratio) ([1]; flow cytometry as in Example 1, compared among ester derivatives of Table 1 (FIG. 2)): superior performance for distinguishing cancer cells from normal cells | fluorescence intensity around esophagus cancer lesion versus normal tissues (esophagus cancer lesion): higher than that of normal tissues | fluorescence at colon cancer lesion (colon cancer lesion): Strong fluorescence was observed at each colon cancer lesion
